Earlier results as cited in patent US20130230592A1, “NOVEL OMEGA-3 AND OMEGA-6 FATTY ACID COMPOSITIONS AND USES THEREOF” (priority 2010, published 2013).

Details: after oral intake of 750 mg EPA

For CCC=CCC=CCC=CCC=CCC=CCCCC(=O)O [EPA, eicosa-5,8,11,14,17-pentaenoic acid], the plasma level is listed as “about 417 μmol/L”.
